# System: not given
# Assay: not given
# Details: not given
row,SMILES,melting point [°C]
1,"Cc1c(Sc2cccc(Cl)c2)c2cc(NS(C)(=O)=O)ccc2n1CC(=O)O [Example 6, 3-[(3-Chlorophenyl)thio]-2-methyl-5-[(methylsulfonyl)amino]-1H-indole-1-acetic acid]",224
2,"Cc1c(Sc2ccc(Cl)cc2)c2cc(NS(C)(=O)=O)ccc2n1CC(=O)O [Example 7, 3-[(4-Chlorophenyl)thio]-2-methyl-5-[(methylsulfonyl)amino]-1H-indole-1-acetic acid]",214
3,"COc1cccc(Sc2c(C)n(CC(=O)O)c3ccc(NS(C)(=O)=O)cc23)c1 [Example 8, 3-[(3-Methoxyphenyl)thio]-2-methyl-5-[(methylsulfonyl)amino]-1H-indole-1-acetic acid]",292
4,"COc1ccc(Sc2c(C)n(CC(=O)O)c3ccc(NS(C)(=O)=O)cc23)cc1 [Example 9, 3-[(4-Methoxyphenyl)thio]-2-methyl-5-[(methylsulfonyl)amino]-1H-indole-1-acetic acid]",215
5,"Cc1c(Sc2ccccc2C(F)(F)F)c2cc(NS(C)(=O)=O)ccc2n1CC(=O)O [Example 10, 3-[(2-Trifluoromethylphenyl)thio]-2-methyl-5-[(methylsulfonyl)amino]-1H-indole-1-acetic acid]",207
6,"Cc1c(Sc2ccccc2C(C)C)c2cc(NS(C)(=O)=O)ccc2n1CC(=O)O [Example 12, 3-[(2-(Methylethyl)phenyl)thio]-2-methyl-5-[(methylsulfonyl)amino]-1H-indole-1-acetic acid]",160
7,"Cc1c(Sc2ccccc2S(C)(=O)=O)c2cc(NS(C)(=O)=O)ccc2n1CC(=O)O [Example 31, 2-Methyl-5-[(methylsulfonyl)amino]-3-[[2-(methylsulfonyl)phenyl]thio]-1H-indole-1-acetic acid]",227 to 230

# Further lines, results first:
row,melting point [°C],SMILES
1,212,"Cc1c(Sc2ccccc2Cl)c2cc(NS(C)(=O)=O)ccc2n1CC(=O)O [Example 5, 3-[(2-Chlorophenyl)thio]-2-methyl-5-[(methylsulfonyl)amino]-1H-indole-1-acetic acid]"
2,257,"Cc1c(Sc2cccc3cccnc23)c2cc(NS(C)(=O)=O)ccc2n1CC(=O)O [Example 11, 3-[(8-Quinolinyl)thio]-2-methyl-5-[(methylsulfonyl)amino]-1H-indole-1-acetic acid]"
3,183 to 185,Cc1c(Sc2ccc(Cl)cc2)c2c(NC(=O)C3CC3)cccc2n1CC(=O)O [Example 15]
4,213 to 215,"Cc1c(Sc2ccc(Cl)cc2)c2c(NC(=O)c3ccccc3)cccc2n1CC(=O)O [Example 16, 4-(Benzoylamino)-3-[(4-chlorophenyl)thio]-2-methyl-1H-indole-1-acetic acid]"
5,233 to 236,"Cc1c(Sc2cccc(S(C)(=O)=O)c2)c2cc(NS(C)(=O)=O)ccc2n1CC(=O)O [Example 30, 2-Methyl-5-[(methylsulfonyl)amino]-3-[[3-(methylsulfonyl)phenyl]thio]-1H-indole-1-acetic acid]"
6,> 290,Cc1c(Sc2ccc(S(C)(=O)=O)cc2)c2cc(-c3cncnc3)ccc2n1CC(=O)O [Example 32]

# Target: T1, rhCRTh2 (Homo sapiens, UniProt Q9Y5Y4)
# T1 construct: expressed in transfected cells; host or cells: HEK cells (membrane preparation)
# T1 sequence (Q9Y5Y4 1-395): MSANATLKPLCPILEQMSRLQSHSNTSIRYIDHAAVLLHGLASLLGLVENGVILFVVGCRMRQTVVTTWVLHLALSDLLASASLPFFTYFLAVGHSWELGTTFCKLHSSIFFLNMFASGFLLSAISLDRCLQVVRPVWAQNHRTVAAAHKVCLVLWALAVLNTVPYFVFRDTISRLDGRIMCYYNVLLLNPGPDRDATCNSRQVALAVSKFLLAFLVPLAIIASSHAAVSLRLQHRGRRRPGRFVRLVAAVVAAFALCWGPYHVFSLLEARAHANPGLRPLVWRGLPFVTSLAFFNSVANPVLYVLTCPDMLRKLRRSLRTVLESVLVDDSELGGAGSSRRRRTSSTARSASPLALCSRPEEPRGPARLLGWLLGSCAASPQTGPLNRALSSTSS
# Assay: Ligand Binding Assay ([3H]PGD2 SPA, HEK cell membranes)
# Details: [3H]PGD2 binding to membranes of HEK cells expressing rhCRTh2/Gα16, SPA beads, 2 hours at room temperature
# Experimental: [^3H]PGD2 was purchased from Perkin Elmer Life Sciences with a specific activity of 100-210 Ci/mmol. All other chemicals were of analytical grade.
# HEK cells expressing rhCRTh2/Gα16 were routinely maintained in DMEM containing 10% Foetal Bovine Serum (HyClone), 1 mg/ml geneticin, 2 mM L-glutamine and 1% non-essential amino acids. For the preparation of membranes, the adherent transfected HEK cells were grown to confluence in two layer tissue culture factories (Fisher, catalogue number TKT-170-070E). Maximal levels of receptor expression were induced by addition of […] sodium butyrate for the last 18 hours of culture. The adherent cells were washed once with phosphate buffered saline (PBS, 50 ml per cell factory) and detached by the addition of 50 ml per cell factory of ice-cold membrane homogenisation buffer [20 mM HEPES (pH 7.4), 0.1 mM dithiothreitol, 1 mM EDTA, 0.1 mM phenyl methyl sulphonyl fluoride and 100 μg/ml bacitracin]. […] The final pellet was re-suspended in 4 ml of membrane homogenisation buffer per cell factory used and the protein content determined. […]
# All assays were performed in Corning clear bottomed, white 96-well NBS plates (Fisher). […] (The optimum coating concentrations were determined for each batch of membranes) The beads were pelleted by centrifugation (800×g for 7 minutes at 4° C.), washed once with assay buffer (50 mM HEPES pH 7.4 containing 5 mM magnesium chloride) and finally re-suspended in assay buffer at a bead concentration of 10 mg/ml.
# Each assay contained 20 μl of 6.25 nM [^3H]PGD2, 20 μl membrane saturated SPA beads both in assay buffer and 10 μl of compound solution or 13,14-dihydro-15-keto prostaglandin D2 (DK-PGD2, for determination of non-specific binding, Cayman chemical company). […] The assay plate was incubated at room temperature for 2 hours and counted on a Wallac Microbeta liquid scintillation counter (1 minute per well).
row,IC50 [nM],SMILES
1,224,"CCN(C(C)=O)c1cccc2c1c(Sc1ccc(Cl)cc1)c(C)n2CC(=O)O [Example 14, 4-(Acetylethylamino)-3-[(4-chlorophenyl)thio]-2-methyl-1H-indole-1-acetic acid]"
2,4.47,"Cc1c(Sc2ccc(S(C)(=O)=O)cc2)c2c(-c3cccs3)cccc2n1CC(=O)O [Example 26, 2-Methyl-3-[[4-(methylsulfonyl)phenyl]thio]-4-(2-thiophenyl)-1H-indole-1-acetic acid]"
3,0.398,"Cc1noc(C)c1-c1ccc2c(c1)c(Sc1ccc(S(C)(=O)=O)cc1)c(C)n2CC(=O)O [Example 34, 5-(3,5-Dimethyl-4-isoxazolyl)-2-methyl-3-[[4-(methylsulfonyl)phenyl]thio]-1H-indole-1-acetic acid]"

# Source: patent US7687535B2, “Substituted 3-sulfur indoles” (AstraZeneca AB, priority 2003, dated 2010)
